Where a SMILES comes first, the peptide text is derived from it. Where no end group is shown, it is not given here. [ ]: non-standard residue; d: D form. The star is where a group is joined. 1Nal = N[C@@H](Cc1cccc2ccccc12)C(=O)O; Myristoyl = CCCCCCCCCCCCCC(=O)*; Nle = CCCC[C@H](N)C(=O)O; Dap = NC[C@H](N)C(=O)O
Experiments:
[1] = target: T1, rat PrRP receptor (GPR10) in RC-4B/C cells (Rattus norvegicus, UniProt Q64121); assay: Competitive binding to rat pituitary RC-4B/C cells; settings: ^125I-rat PrRP31, RC-4B/C cells
T1 construct: host or cells: RC-4B/C rat pituitary cell line
T1 sequence (Q64121 1-370): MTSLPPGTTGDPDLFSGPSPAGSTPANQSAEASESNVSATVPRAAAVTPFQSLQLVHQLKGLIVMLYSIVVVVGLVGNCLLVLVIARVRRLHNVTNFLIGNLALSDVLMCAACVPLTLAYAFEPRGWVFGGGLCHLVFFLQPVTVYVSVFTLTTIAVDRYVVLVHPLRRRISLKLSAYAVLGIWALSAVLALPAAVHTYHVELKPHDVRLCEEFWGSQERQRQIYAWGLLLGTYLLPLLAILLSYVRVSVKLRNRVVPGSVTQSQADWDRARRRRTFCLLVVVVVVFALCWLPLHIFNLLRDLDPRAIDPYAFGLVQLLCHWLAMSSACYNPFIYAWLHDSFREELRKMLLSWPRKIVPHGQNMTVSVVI

[2] = test system: MAPK/ERK1/2 signaling pathway in RC-4B/C cells; assay: MAPK/ERK1/2 signaling in RC-4B/C cells (Western blot); format: cell-based, rat; settings: 10^−6 mol·l^−1, 5 minute incubation
Protocol: RC-4B/C cells, which were used to determine if lipidated PrRP20 analogs are able to initiate the MAPK/ERK1/2 signaling pathway, were grown in 6-well plates up to the optimal density of […]. Seventeen hours before sample harvest, the growth medium was replaced by a serum-free medium lacking epidermal growth factor (EGF). The respective lipidated PrRP analog was added to each well in the final concentration of 10^−6 mol·l^−1. After a 5 minute incubation at 37° C., the plate was placed on ice and each well was rinsed three times with PBS pH 7.4 (137 mmol·l^−1 NaCl, 2.7 mmol·l^−1 KCl, 8 mmol·l^−1 Na2HPO4.2H2O a 1.76 mmol·l^−1 KH2PO4) and cooled to 4° C. […] Samples were collected in at least three independent experiments.
To determine if the lipidated PrRP20 analogs initiated the MAPK/ERK1/2 signaling pathway, Western blot analysis was used. Electrophoresis was performed on 5%/12% polyacrylamide gel in the presence of SDS (SDS-PAGE) on the instrument MiniProtean 3 (BioRad, Herkules, Calif., USA). Samples that were loaded on the gel were first disintegrated by ultrasound, then heated at 100° C. for 2 minutes, and centrifuged for 5 minutes at 500×g at room temperature. […] Electrophoresis was performed at a constant voltage of 100 V for 10 minutes, or for 60 minutes at 150 V.
To show the presence of phosphorylated proteins in the samples, the proteins from the SDS-PAGE gel were transferred to the Immobilon™-P PVDF (polyvinylidene difluoride) membrane (Sigma-Aldrich, USA). The transfer was performed in blotting buffer at pH 8.3 (25 mmol·l^−1 Tris, 192 mmol·l^−1 glycine and 20% methanol) for 20 hours at 4° C. at a constant voltage of 30 V.
After the protein transfer to the PVDF membrane, the membranes were washed for 5 minutes in TBS washing buffer (20 mmol·l^−1 Tris, 140 mmol·l^−1 NaCl and 0.1% Tween-20) and then incubated for 1 hour in blocking buffer (TBS with 5% non-fat milk powder and 5 mmol·l^−1 Na3VO4 and 50 mmol·l^−1 NaF) at room temperature. Further, the membranes were washed three times for 5 minutes using the TBS washing buffer. The membranes were then incubated with the primary antibody against phospho-p44/42 MAPK(Thr202/Tyr204) (Cell Signaling Technology, Beverly, USA) which was diluted in blocking buffer at 1:1000. After the next three washes with the TBS washing buffer for 5 minutes, the membranes were incubated for 1 hour with rabbit secondary antibody labeled with peroxidase (Sigma, St. Louis, USA) which was diluted in blocking buffer at 1:12,000.
The membranes were then washed three times in TBS washing buffer for 5 minutes and then the solution Femto (Pierce SuperSignal, Thermo Fisher Scientific, Rockford, Ill., USA) was applied. The induced chemiluminiscence was detected by a CCD camera (LAS 3000, Fuji Photo Film GmBH, Düsseldorf, Germany).
To assess the initiation of signaling pathways, a densitometric analysis using the program Quantity One (BioRad, Hercules, Calif., USA) was used. For statistical evaluation of the statistically significant response of the cellular signaling, one-way ANOVA with subsequent Dunnett post-hoc test was used. Data was statistically significant at P<0.05.

fasted C57BL/6 mice [3] = assay: Food intake in fasted mice after SC administration; format: in vivo, mouse; settings: for food intake / % control: SC administration; for % control: food intake vs saline
Procedure, shortened: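 Male C57BL/6 mice, food-deprived 17 h, received saline, PrRP or lipidated analogs either SC at 1-10 mg/kg or ICV into the third ventricle at 4 nmol/mouse.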

fasted C57BL/6 mice [4] = assay: Food intake in fasted mice after ICV administration; format: in vivo; settings: 4 nmol/mouse; for % control: food intake vs saline
Protocol: Male C57BL/6 mice (An Lab, Prague 4) were bred in the accredited animal facility in the Institute of Organic Chemistry and Biochemistry, Czech Academy of Sciences, Prague, at the Institute of Molecular Genetics, Prague 4, at the temperature of 22±2° C. with access to food and water ad libitum. The day/night cycle was 12/12 hours (light turned on at 6:00 am). Animals were treated according to the Animal Protection Act (Act No. 246/1992). The males were fed standard chow diet St-1 (Mlýn Kocanda, Praha, Czech Republic) which contained 66% saccharides, 25% proteins and 9% lipids with a caloric value of 3.4 kcal/g.
The food was withdrawn 17 hours prior to injection of lipidated peptide and free access to water was maintained. The administration of saline, PrRP or lipidated analogs was performed either by SC injection at doses of 1-10 mg/kg (volume 0.2 ml/mouse), or by ICV using infusion pump (cannulae were inserted into the third brain ventricle 4 days before the experiment following the procedure of Maixnerová et al. (Maixnerová et al., 2011)). The single dose of peptide was 4 nmol/mouse (5 μl/mouse).
Fifteen minutes after the lipidated peptide administration, the mice were given pre-weighed food. The food was then weighed every 30 minutes for 5-10 hours. The administration of every dose was performed at least twice and one group of mice consisted of at least 6 mice. The results were presented as % of food intake as compared with the control group injected with saline.
Statistical evaluation was performed using program Graph-Pad Prism Software (San Diego, Calif., USA), and the one-way ANOVA with a subsequent Dunnettovým post-hoc test. The difference in food intake between mice injected with saline and mice injected with the examined peptide were considered statistically significant at P<0.05.

DIO C57BL/6 male mice = assay: 14-day SC administration in diet-induced obese (DIO) mice; format: in vivo, mouse
Protocol: Inbred C57BL/6 male mice (AnLab, Prague, Czech Republic) were housed at a temperature of 23° C. under a daily cycle of 12 hours light and dark (light from 6:00 a.m.) with free access to water and food pellets (St-1, Mlýn Kocanda, Jesenice, Czech Republic).
At 8 weeks of age, mice were divided into a standard (St) diet-fed group (the energy content of the St-1 diet was 3.4 kcal/g, containing 25, 9, and 66% of calories from protein, fat, and carbohydrate, respectively (St-1, Mlýn Kocanda, Jesenice, Czech Republic)) and a high fat (HF) diet-fed group (the energy content of the HF diet was 5.3 kcal/g, containing 13, 60, and 27% of calories from protein, fat, and carbohydrate, respectively). […] Food intake and body weight were monitored weekly from 9 to 20 weeks of age. Mice resistant to the HF diet were withdrawn from the experiment (approximately 10% of mice).
At the age of 20 weeks, mice were placed into separate cages with free access to food and water. The following week, mice were subjected to a 14-day food intake experiment. They were injected with palm-PrRP31 or myr-PrRP20 dissolved in saline at doses of 5 mg/kg (n=10) or saline twice a day (at 8:00 and 18:00) for 14 days. Consumption of the St or HF diet and the weight of the mice were simultaneously followed.
After 14 days of treatment, mice were fasted overnight and sacrificed the following morning. Their blood sera were isolated, and the white adipose tissue (subcutaneous, abdominal, and gonadal), and the liver of all mice were dissected, weighed, and stored at −70° C. Fat to body weight ratio was calculated as a ratio of adipose tissue weight to body weight.
Serum insulin and leptin concentrations were measured by RIA assays. Serum glucose levels were measured using a Glucocard glucometer (Arkray, Kyoto, Japan). Serum triglyceride levels were measured by quantitative enzymatic reactions (Sigma, St. Louis, USA).
They were analyzed by a one-way ANOVA followed by a Dunnett post-hoc test (metabolic parameters, behavioral study) or two-way ANOVA followed by a Bonferroni post-hoc test (body weight evaluation) using Graph-Pad Software (San Diego, Calif., USA). P<0.05 was considered statistically significant.

[5] = 5 mg/kg SC twice a day, 14 days, 17 h fasted DIO male mice
[6] = serum, 5 mg/kg SC twice a day, 14 days, 17 h fasted DIO male mice
[7] = 45 minutes, dose not stated for these substances
[8] = 300 minutes, dose not stated for these substances

Molecule: CCCCCCCCCCCCCC(=O)NC[C@H](N)C(=O)N[C@@H](CCCNC(=N)N)C(=O)N[C@@H](C)C(=O)N[C@@H](Cc1c[nH]cn1)C(=O)N[C@@H](CCC(N)=O)C(=O)N[C@@H](Cc1c[nH]cn1)C(=O)N[C@@H](CO)C(=O)N[C@@H](CCCC)C(=O)N[C@@H](CCC(=O)O)C(=O)N[C@H](C(=O)N[C@@H](CCCNC(=N)N)C(=O)N[C@H](C(=O)N1CCC[C@H]1C(=O)N[C@@H](CC(=O)O)C(=O)N[C@H](C(=O)N[C@@H](CC(N)=O)C(=O)N1CCC[C@H]1C(=O)N[C@@H](C)C(=O)N[C@@H](Cc1c[nH]c2ccccc12)C(=O)N[C@@H](Cc1ccc(O)cc1)C(=O)N[C@H](C(=O)NCC(=O)N[C@@H](CCCNC(=N)N)C(=O)NCC(=O)N[C@H](C(=O)N[C@@H](CCCNC(=N)N)C(=O)N1CCC[C@H]1C(=O)N[C@H](C(=O)NCC(=O)N[C@@H](CCCNC(=N)N)C(=O)N[C@@H](Cc1cccc2ccccc12)C(N)=O)C(C)C)[C@@H](C)CC)[C@@H](C)O)[C@@H](C)CC)[C@@H](C)O)[C@@H](C)O [Analog 9] (H-[Dap](Myristoyl)RAHQHS[Nle]ETRTPDINPAWYTGRGIRPVGR[1Nal]-NH2)
- % of PrRP31 binding [1]: 167%
- ERK signaling [2]: agonist
- dose dependence of the lowering of food intake (fasted C57BL/6 mice [3]; SC administration, 1, 2, 5 and 10 mg/kg, FIG. 5 and 6): dose dependent
- food intake (fasted C57BL/6 mice [3]; 45 minutes, 10 mg/kg): 0.01 g
- % control (fasted C57BL/6 mice [3]; 45 minutes, 10 mg/kg): 2%
- food intake (fasted C57BL/6 mice [3]; 300 minutes, 10 mg/kg): 0.22 g
- % control (fasted C57BL/6 mice [3]; 300 minutes, 10 mg/kg): 25%
- food intake (fasted C57BL/6 mice [4]; 45 minutes): 0.28 g
- % control (fasted C57BL/6 mice [4]; 45 minutes): 51%
- food intake (fasted C57BL/6 mice [4]; 300 minutes): 1.03 g
- % control (fasted C57BL/6 mice [4]; 300 minutes): 78%

Molecule: CCCCCCCCCCCCCC(=O)N[C@H](C(=O)N1CCC[C@H]1C(=O)N[C@@H](CC(=O)O)C(=O)N[C@H](C(=O)N[C@@H](CC(N)=O)C(=O)N1CCC[C@H]1C(=O)N[C@@H](C)C(=O)N[C@@H](Cc1c[nH]c2ccccc12)C(=O)N[C@@H](Cc1ccc(O)cc1)C(=O)N[C@H](C(=O)NCC(=O)N[C@@H](CCCNC(=N)N)C(=O)NCC(=O)N[C@H](C(=O)N[C@@H](CCCNC(=N)N)C(=O)N1CCC[C@H]1C(=O)N[C@H](C(=O)NCC(=O)N[C@@H](CCCNC(=N)N)C(=O)N[C@@H](Cc1ccccc1)C(N)=O)C(C)C)[C@@H](C)CC)[C@@H](C)O)[C@@H](C)CC)[C@@H](C)O [Analog 10] (Myristoyl-TPDINPAWYTGRGIRPVGRF-NH2)
- % of PrRP31 binding [1]: 632%
- ERK signaling [2]: agonist
- food intake (fasted C57BL/6 mice [3]; 45 minutes, 5 mg/kg): 0.11 g
- % control (fasted C57BL/6 mice [3]; 45 minutes, 5 mg/kg): 32%
- % control (fasted C57BL/6 mice [3]; 300 minutes, 5 mg/kg): 44%
- food intake (fasted C57BL/6 mice [4]; 45 minutes): 0.28 g
- % control (fasted C57BL/6 mice [4]; 45 minutes): 51%
- food intake (fasted C57BL/6 mice [4]; 300 minutes): 1.1 g
- % control (fasted C57BL/6 mice [4]; 300 minutes): 86%

Molecule: Myr-PrRP20: myristoylated PrRP20 given to DIO mice; analog number (rat 10 or human 13/55) not stated (Myristoyl-TPDINPAWYASRGIRPVGRF-NH2; ends and bridges not checked; UniProt P81277 34-53, looked up)
- Fat/body weight [%] (DIO C57BL/6 male mice; [5]): 15.30 ± 0.42%
- Liver/body weight [%] (DIO C57BL/6 male mice; [5]): 3.60 ± 0.18 %
- Body weight of DIO mice (DIO C57BL/6 male mice; 5 mg/kg SC twice per day for 14 days, FIG. 9): significantly decreased
- Glucose (DIO C57BL/6 male mice; [6]): 7.52 ± 0.16 mmol/L
- Insulin (DIO C57BL/6 male mice; [6]): 3.54 ± 0.47 ng/mL
- Leptin (DIO C57BL/6 male mice; [6]): 39.56 ± 3.47 ng/mL
- Triglycerides (DIO C57BL/6 male mice; [6]): 68.71 ± 4.16 mg/dL

Molecule: TPDINPAWYTGRGIRPVGRF-NH2 [PrRP20, reference compound]
- % of PrRP31 binding [1]: 143%
- ERK signaling [2]: agonist
- food intake (fasted C57BL/6 mice [3]; [7]): 0.32 g
- % control (fasted C57BL/6 mice [3]; [7]): 100%
- food intake (fasted C57BL/6 mice [3]; [8]): 1.1 g
- % control (fasted C57BL/6 mice [3]; [8]): 100%
- food intake (fasted C57BL/6 mice [4]; 45 minutes): 0.32 g
- % control (fasted C57BL/6 mice [4]; 45 minutes): 68%
- food intake (fasted C57BL/6 mice [4]; 300 minutes): 1.29 g
- % control (fasted C57BL/6 mice [4]; 300 minutes): 100%
